The assay has as its system M. tuberculosis H37Rv growth inhibition with meropenem. Nature of the assay: dose response, H37Rv, with and without meropenem (AID 434987).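 Also: growth over 7 days at 37 °C before Alamar Blue read on day 9.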
[1] abbreviates: M. tuberculosis H37Rv growth inhibition, measured here: IC50 without meropenem.
Where [2] appears, read: M. tuberculosis H37Rv growth inhibition, measured here: IC90 without meropenem.
[3] abbreviates: measured here: IC90 with meropenem.

Activity calls are given as the source filed them. No rule for the calls is given here.

Consider `c1ccc(-c2oc3ncnc(NCCN4CCOCC4)c3c2-c2ccccc2)cc1`, for which the IC50 is > 100 µM (inactive). This molecule displayed an IC50 under setting [1] of over 100 µM. The same molecule returned an IC90 under setting [2] of over 100 µM. For the same molecule, the IC90 under setting [3] is over 100 µM.
Take `CCN1C(=O)C(=Cc2ccc(N3CCOCC3)o2)C(=O)N(CC)C1=S`: the IC50 was > 100 µM (inactive). The molecule further gave an IC50 under setting [1] of over 100 µM. Further, the IC90 under setting [2] is over 100 µM. Under setting [3], the IC90 is over 100 µM.
Take `Cc1ccc(NC(=O)CSc2n[nH]c(-c3ccco3)n2)cc1`: the IC50 was > 100 µM (inactive). Moreover, the IC50 under setting [1] was over 100 µM. Besides, the IC90 under setting [2] was over 100 µM. The IC90 under setting [3] is over 100 µM.
With `CCCCOc1ccccc1NC(=O)c1ccco1`, the IC50 is > 100 µM (inactive). The IC50 under setting [1] is over 100 µM. For the same molecule, under setting [2], the concentration for an effect of 90% (IC90) is over 100 µM. Also, under setting [3], the IC90 was over 100 µM.
Consider `CCC(C(=O)Nc1ccccc1N1CCCC1)c1ccccc1` (stereo not drawn), for which the IC50 is 48.8 µM (inactive). Under setting [1], this molecule gave an IC50 of over 100 µM. This molecule registered an IC90 under setting [2] of over 100 µM. Under setting [3], the IC90 is over 100 µM.
Regarding `Cc1ccc(N=Cc2c(O)ccc3ccccc23)cc1F`, the IC50 is > 100 µM (inactive). The same molecule gave an IC50 under setting [1] of over 100 µM. The IC90 under setting [2] is over 100 µM. The molecule further showed an IC90 under setting [3] of over 100 µM.
In the case of `O=C(Oc1c(-c2ccccc2)c(=O)n2c3c(cccc13)CC2)c1cccc([N+](=O)[O-])c1`, the IC50 is 3.97 µM. The molecule also returned an IC50 under setting [1] of 30.5 µM. In addition, the IC90 under setting [2] is 85.1 µM. For the same molecule, the IC90 under setting [3] came to 62.3 µM.
On to `COc1ccc(/C=C/C(=O)N(C(C)C)C(C)C)cc1Br`, for which the half-maximal inhibitory concentration (IC50) is 5.89 µM. Moreover, under setting [1], the IC50 came out at 93 µM. In addition, under setting [2], the IC90 is over 100 µM. Under setting [3], this molecule returned an IC90 of 96.4 µM.
Consider `O=C(/C=C/c1ccccc1)NC1CC2CCC1C2` (stereo not drawn), for which the IC50 was > 100 µM (inactive). The IC50 under setting [1] was over 100 µM. Also, under setting [2], the IC90 was over 100 µM. For the same molecule, under setting [3], the concentration for an effect of 90% (IC90) was over 100 µM.
Take `O=C1C(Cl)=C(N2CCCCCC2)C(=O)N1c1ccc(Br)cc1`: the IC50 is 7.59 µM (inactive). For the same molecule, the concentration for half-maximal inhibition (IC50) under setting [1] came out at 18.3 µM. For the same molecule, the IC90 under setting [2] is over 100 µM. In addition, under setting [3], the IC90 was 19.4 µM.
With `COc1ccc(OC)c(C2CC(c3c(-c4ccccc4)c4cc(Cl)ccc4[nH]c3=O)=NN2S(C)(=O)=O)c1` (stereo not drawn), the IC50 is > 100 µM (inactive). The molecule further gave an IC50 under setting [1] of over 100 µM. Moreover, the IC90 under setting [2] is over 100 µM. The molecule further had an IC90 under setting [3] of over 100 µM.
For the molecule `Cc1cc(C)cc(NC(=O)c2cc(Cl)sc2Cl)c1`, the 50% inhibitory concentration (IC50) is 4.84 µM. For the same molecule, the IC50 under setting [1] was over 100 µM. Under setting [2], the IC90 was over 100 µM. Further, the IC90 under setting [3] stood at 7.73 µM.
For `NC(=O)Nc1ccc(C(=O)OCC(=O)Nc2ccc(Cl)cn2)cc1`, the IC50 was > 100 µM (inactive). The molecule further had a concentration for half-maximal inhibition (IC50) under setting [1] of over 100 µM. Also, the IC90 under setting [2] was over 100 µM. Moreover, the IC90 under setting [3] is over 100 µM.
Regarding `Cc1ccsc1/C=N/Nc1ncc(Cl)cc1Cl`, the IC50 is 8.81 µM. This molecule also displayed an IC50 under setting [1] of 50.9 µM. The molecule further yielded an IC90 under setting [2] of over 100 µM. Under setting [3], this molecule displayed an IC90 of over 100 µM.
On to `CCOc1cc(/C=N\NC(=O)c2ccc(NC(=O)C(C)(C)C)cc2)ccc1OC(=O)c1ccc(C)cc1`, for which the IC50 is > 100 µM (inactive). Under setting [1], the IC50 is over 100 µM. Besides, the IC90 under setting [2] was over 100 µM. The IC90 under setting [3] was over 100 µM.
Regarding `COC(=O)c1ccccc1NC(=O)CSCC(=O)Nc1ccc(F)cc1`, the IC50 was 39.7 µM (inactive). This molecule showed a concentration for half-maximal inhibition (IC50) under setting [1] of 94.9 µM. Under setting [2], this molecule returned a concentration for an effect of 90% (IC90) of over 100 µM. Also, under setting [3], the IC90 is over 100 µM.
For `COc1nc(Nc2nc3ccccc3c(=O)[nH]2)nc2ccc(C)cc12`, the IC50 is > 100 µM (inactive). The molecule also showed an IC50 under setting [1] of over 100 µM. The IC90 under setting [2] was over 100 µM. The molecule further came in with an IC90 under setting [3] of over 100 µM.
With `CCn1nnnc1SCC(=O)c1ccc(C)cc1C`, the IC50 was > 100 µM (inactive). In addition, under setting [1], the IC50 was over 100 µM. For the same molecule, the IC90 under setting [2] is over 100 µM. The IC90 under setting [3] was over 100 µM.
With `CCOC(=O)c1sc(NC(=O)CSc2n[nH]c(CC(C)C)n2)nc1C`, the IC50 was 19.3 µM (inactive). Besides, the IC50 under setting [1] is 46.5 µM. For the same molecule, the IC90 under setting [2] was over 100 µM. This molecule came in with an IC90 under setting [3] of over 100 µM.
Turning to `NC(=O)[C@@H]1CC2(CC(c3cccc(NC(=O)COc4ccc(Cl)cc4)c3)=NO2)CN1C(=O)COc1ccc(Cl)cc1` (stereo partly drawn), the IC50 was 75.4 µM (inactive). Under setting [1], this molecule came in with an IC50 of over 100 µM. The molecule further yielded an IC90 under setting [2] of over 100 µM. Moreover, under setting [3], the IC90 was over 100 µM.
On to `CCOC(=O)CNC(=O)CSc1ncnc2c1cnn2Cc1ccccc1`, for which the IC50 was > 100 µM (inactive). Under setting [1], this molecule showed an IC50 of over 100 µM. Under setting [2], this molecule registered an IC90 of over 100 µM. This molecule also had an IC90 under setting [3] of over 100 µM.
For `COc1ccc(-c2cc(C(F)F)nc(-n3nc(C)cc3C)n2)cc1`, the IC50 is 24.3 µM (inactive). Further, the IC50 under setting [1] was determined as 47.4 µM. The same molecule gave an IC90 under setting [2] of over 100 µM. The molecule also gave an IC90 under setting [3] of 54.1 µM.

One may read the IC50 as the midpoint of a concentration-inhibition curve. A word on the IC90: it is the point of the concentration-response curve where the effect stands at 90%. A high value points to weaker potency.

(Values after PubChem BioAssay AID434987 (Southern Research Specialized Biocontainment Screening …, 2010).)
